Each structure is given as a SMILES string.

For this experiment, the system named is Balb/c mice. Kind of experiment: Hot-Plate Test of Balb/c mice vs. imipramine, i.p. & p.o. (Example 2). It is filed as in vivo. The settings on record: 5 mg/kg i.p. at t=0, group Average. The protocol:
14-week old male Balb/c mice (non-naive) were divided into four groups of seven mice per group and treated at t=0 as detailed in Table 3 below:
Compound 18 stock comprises 9.4 mg Compound 18, 0.2 mL DMSO and 0.8 mL saline.
As in Example 1 above, the response latencies of the mice in the respective groups were tested using a hot-plate at t=−60 mins., 0 mins., 60 mins., 120 mins., 180 mins., 240 mins., 300 mins. and 360 mins.

Consider `CN(C)CCCN1c2ccccc2CCc2ccccc21` [Imipramine, imipramine], for which the hot-plate response latency (tested at t=0 mins.) was 13.7 s; the hot-plate response latency (tested at t=60 mins.) is 14.9 s; the hot-plate response latency (tested at t=120 mins.) is 14.6 s; the hot-plate response latency (tested at t=240 mins.) is 22.9 s; the hot-plate response latency (tested at t=300 mins.) amounted to 23.1 s.

Values taken from US9199917B2, “N-substituted benzenepropanamide or benzenepropenamide derivatives for use in the treatment of pain and inflammation” (Novaremed Limited, priority 2008, dated 2015).
